Test results: ChEMBL document CHEMBL1201862, “PubChem BioAssay data set” (2004)
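Interpolation was linear, between the two tested concentrations surrounding the appropriate level; five concentrations were tested over 48 hours in 96-well plates. Here, GI50 denotes the concentration required for 50% inhibition of growth.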 Active and inactive are the calls of the source. Cut-off read from the data, not from the text of the source: active = GI50 up to about 1.1 µM and inactive = higher.

Experiments:
Test in all cases: NCI anticancer screen, dose series, 48 h
SK-MEL-2 = tested on: SK-MEL-2
SW-620 = tested on: SW-620
HCT-116 = tested on: HCT-116
UACC-257 = tested on: UACC-257
HT-29 = tested on: HT-29
MCF7 = tested on: MCF7
HCT-15 = tested on: HCT-15
EKVX = tested on: EKVX
NCI-H522 = tested on: NCI-H522
SNB-19 = tested on: SNB-19
UACC-62 = tested on: UACC-62
ACHN = tested on: ACHN
RPMI-8226 = tested on: RPMI-8226
LOX IMVI = tested on: LOX IMVI
IGROV-1 = tested on: IGROV-1
SK-OV-3 = tested on: SK-OV-3
OVCAR-3 = tested on: OVCAR-3
M14 = tested on: M14
SR = tested on: SR
HCC 2998 = tested on: HCC 2998

SMILES: COc1nc(Cl)nc(N[C@H](C)c2c3ccccc3cc3ccccc23)n1
- GI50 (SK-MEL-2): 15.8 µM (inactive)
- GI50 (SW-620): 15.2 µM (inactive)
- GI50 (HCT-116): 12.4 µM (inactive)
- GI50 (UACC-257): 16 µM (inactive)
- GI50 (HT-29): 15.5 µM (inactive)
- GI50 (MCF7): 14.2 µM (inactive)
- GI50 (HCT-15): 13.3 µM
- GI50 (EKVX): 16.1 µM (inactive)
- GI50 (NCI-H522): 7.6 µM (inactive)
- GI50 (SNB-19): 16.3 µM (inactive)
- GI50 (UACC-62): 0.628 µM (active)
- GI50 (ACHN): 17.8 µM (inactive)
- GI50 (RPMI-8226): 5.3 µM (inactive)
- GI50 (LOX IMVI): 15.6 µM (inactive)
- GI50 (IGROV-1): 6.75 µM (inactive)
- GI50 (SK-OV-3): 15.7 µM (inactive)
- GI50 (OVCAR-3): 11.1 µM (inactive)

SMILES: CCN(CC)CCCNC(=O)c1ccccc1Nc1c(Cl)cccc1Cl
- GI50 (M14): 2.64 µM (inactive)
- GI50 (SW-620): 13.6 µM (inactive)
- GI50 (HCT-116): 11.5 µM (inactive)
- GI50 (UACC-257): 3.03 µM (inactive)
- GI50 (HT-29): 4.23 µM (inactive)
- GI50 (HCT-15): 12.6 µM
- GI50 (SR): 10.8 µM (inactive)
- GI50 (EKVX): 11.1 µM (inactive)
- GI50 (HCC 2998): 7.03 µM (inactive)
- GI50 (SNB-19): 15.6 µM (inactive)
- GI50 (UACC-62): 12 µM (inactive)
- GI50 (ACHN): 10.2 µM (inactive)
- GI50 (RPMI-8226): 5.68 µM (inactive)
- GI50 (LOX IMVI): 8.55 µM (inactive)
- GI50 (IGROV-1): 17.6 µM (inactive)
- GI50 (SK-OV-3): 14.2 µM (inactive)

SMILES: Nc1nc(N)nc(-c2ccccc2NS(=O)(=O)c2ccc([N+](=O)[O-])cc2)n1
- GI50 (SK-MEL-2): 81.5 µM (inactive)
- GI50 (SW-620): > 100 µM (inactive)
- GI50 (HCT-116): 67.5 µM (inactive)
- GI50 (UACC-257): 43 µM (inactive)
- GI50 (HT-29): 53.7 µM (inactive)
- GI50 (MCF7): > 81.5 µM (inactive)
- GI50 (HCT-15): > 84.5 µM
- GI50 (EKVX): > 100 µM (inactive)
- GI50 (NCI-H522): 55.8 µM (inactive)
- GI50 (HCC 2998): > 70.5 µM (inactive)
- GI50 (SNB-19): > 100 µM (inactive)
- GI50 (UACC-62): > 96.6 µM (inactive)
- GI50 (RPMI-8226): 45.9 µM (inactive)
- GI50 (LOX IMVI): 38.2 µM (inactive)
- GI50 (IGROV-1): > 100 µM (inactive)
- GI50 (SK-OV-3): > 100 µM (inactive)
- GI50 (OVCAR-3): 54 µM (inactive)

SMILES: COc1ccc2[nH]c(C(=O)N3CC(CCl)c4c3cc(N)c3ccccc43)cc2c1 (stereo unspecified)
- GI50 (SK-MEL-2): 0.0122 µM (active)
- GI50 (M14): < 0.01 µM (active)
- GI50 (SW-620): < 0.01 µM (active)
- GI50 (HCT-116): < 0.01 µM (active)
- GI50 (UACC-257): 0.0119 µM (active)
- GI50 (HT-29): < 0.01 µM (active)
- GI50 (MCF7): < 0.01 µM (active)
- GI50 (HCT-15): < 0.01 µM
- GI50 (SR): < 0.01 µM (active)
- GI50 (EKVX): < 0.01 µM (active)
- GI50 (HCC 2998): < 0.01 µM (active)
- GI50 (SNB-19): < 0.0154 µM (active)
- GI50 (UACC-62): < 0.01 µM (active)
- GI50 (ACHN): < 0.01 µM (active)
- GI50 (RPMI-8226): 0.0122 µM (active)
- GI50 (LOX IMVI): < 0.01 µM (active)
- GI50 (IGROV-1): < 0.01 µM (active)
- GI50 (SK-OV-3): < 0.014 µM (active)
- GI50 (OVCAR-3): 0.0139 µM (active)

SMILES: O=C1CN2Cc3cc(N4CCOCC4)ccc3N=C2N1
- GI50 (SK-MEL-2): 42.7 µM (inactive)
- GI50 (M14): 33 µM (inactive)
- GI50 (SW-620): 47.1 µM (inactive)
- GI50 (HCT-116): 21.3 µM (inactive)
- GI50 (UACC-257): 89.1 µM (inactive)
- GI50 (HT-29): 38 µM (inactive)
- GI50 (MCF7): 60.8 µM (inactive)
- GI50 (HCT-15): 22.9 µM
- GI50 (SR): 66.1 µM (inactive)
- GI50 (SNB-19): > 100 µM (inactive)
- GI50 (UACC-62): 26.2 µM (inactive)
- GI50 (RPMI-8226): 67 µM (inactive)
- GI50 (LOX IMVI): > 100 µM (inactive)
- GI50 (IGROV-1): 27.5 µM (inactive)
- GI50 (SK-OV-3): 25.8 µM (inactive)
- GI50 (OVCAR-3): 30.1 µM (inactive)

SMILES: Cc1ccc(NC(=O)CC(=O)n2nc(-c3ccccc3)c(/N=N/c3ccccc3C(=O)O)c2-c2ccccc2)cc1
- GI50 (SK-MEL-2): > 100 µM (inactive)
- GI50 (SW-620): > 100 µM (inactive)
- GI50 (HCT-116): > 100 µM (inactive)
- GI50 (HCT-15): > 100 µM
- GI50 (SR): > 100 µM (inactive)
- GI50 (EKVX): 1.91 µM (inactive)
- GI50 (NCI-H522): > 100 µM (inactive)
- GI50 (HCC 2998): 66.2 µM (inactive)
- GI50 (SNB-19): > 100 µM (inactive)
- GI50 (UACC-62): > 100 µM (inactive)
- GI50 (ACHN): 51.5 µM (inactive)
- GI50 (RPMI-8226): > 100 µM (inactive)
- GI50 (LOX IMVI): > 100 µM (inactive)
- GI50 (IGROV-1): > 100 µM (inactive)
- GI50 (SK-OV-3): > 100 µM (inactive)
- GI50 (OVCAR-3): > 100 µM (inactive)

SMILES: O=c1cnn(C/C=C/CP(=O)(O)O)c(=O)[nH]1
- GI50 (SK-MEL-2): > 100 µM (inactive)
- GI50 (M14): > 100 µM (inactive)
- GI50 (SW-620): > 100 µM (inactive)
- GI50 (UACC-257): > 100 µM (inactive)
- GI50 (MCF7): > 100 µM (inactive)
- GI50 (HCT-15): > 100 µM
- GI50 (SR): > 100 µM (inactive)
- GI50 (EKVX): > 100 µM (inactive)
- GI50 (NCI-H522): > 100 µM (inactive)
- GI50 (HCC 2998): > 100 µM (inactive)
- GI50 (SNB-19): > 100 µM (inactive)
- GI50 (ACHN): 97.1 µM (inactive)
- GI50 (RPMI-8226): > 100 µM (inactive)
- GI50 (LOX IMVI): > 100 µM (inactive)
- GI50 (IGROV-1): > 100 µM (inactive)
- GI50 (OVCAR-3): > 100 µM (inactive)

SMILES: CCOC(=O)C(C)OC(=O)c1ccc(C)cc1 (stereo unspecified)
- GI50 (SK-MEL-2): > 100 µM (inactive)
- GI50 (M14): > 100 µM (inactive)
- GI50 (SW-620): > 100 µM (inactive)
- GI50 (HCT-116): > 100 µM (inactive)
- GI50 (UACC-257): > 100 µM (inactive)
- GI50 (HT-29): > 100 µM (inactive)
- GI50 (HCT-15): > 100 µM
- GI50 (SR): > 100 µM (inactive)
- GI50 (EKVX): > 100 µM (inactive)
- GI50 (NCI-H522): > 100 µM (inactive)
- GI50 (HCC 2998): > 100 µM (inactive)
- GI50 (SNB-19): > 100 µM (inactive)
- GI50 (UACC-62): > 100 µM (inactive)
- GI50 (ACHN): > 100 µM (inactive)
- GI50 (LOX IMVI): > 100 µM (inactive)
- GI50 (IGROV-1): > 100 µM (inactive)
- GI50 (SK-OV-3): > 100 µM (inactive)
- GI50 (OVCAR-3): > 100 µM (inactive)

SMILES: Cc1cccc2sc(-c3ccc(O)cc3)nc12
- GI50 (SK-MEL-2): 17.7 µM (inactive)
- GI50 (M14): 15.2 µM (inactive)
- GI50 (SW-620): 11.5 µM (inactive)
- GI50 (HCT-116): 15.6 µM (inactive)
- GI50 (UACC-257): 18.8 µM (inactive)
- GI50 (HT-29): 15.3 µM (inactive)
- GI50 (MCF7): 12.2 µM (inactive)
- GI50 (HCT-15): 12.6 µM
- GI50 (SR): 22 µM (inactive)
- GI50 (EKVX): 0.579 µM (active)
- GI50 (NCI-H522): 16.3 µM (inactive)
- GI50 (SNB-19): 17.8 µM (inactive)
- GI50 (UACC-62): 16 µM (inactive)
- GI50 (ACHN): 16.5 µM (inactive)
- GI50 (RPMI-8226): 20.9 µM (inactive)
- GI50 (LOX IMVI): 18.4 µM (inactive)
- GI50 (IGROV-1): 13.7 µM (inactive)
- GI50 (SK-OV-3): 19.6 µM (inactive)
- GI50 (OVCAR-3): 16.1 µM (inactive)

SMILES: O=C(O)CC/C(=N\Nc1nsc2ccccc12)c1ccccc1
- GI50 (SK-MEL-2): > 100 µM (inactive)
- GI50 (M14): 54.5 µM (inactive)
- GI50 (SW-620): 52.4 µM (inactive)
- GI50 (HCT-116): 41.6 µM (inactive)
- GI50 (UACC-257): 57.3 µM (inactive)
- GI50 (HT-29): 34.4 µM (inactive)
- GI50 (HCT-15): 36 µM
- GI50 (SR): 24.9 µM (inactive)
- GI50 (EKVX): > 100 µM (inactive)
- GI50 (HCC 2998): 30.5 µM (inactive)
- GI50 (SNB-19): > 100 µM (inactive)
- GI50 (UACC-62): 58.5 µM (inactive)
- GI50 (ACHN): 70.6 µM (inactive)
- GI50 (RPMI-8226): 18.5 µM (inactive)
- GI50 (LOX IMVI): 29.5 µM (inactive)
- GI50 (IGROV-1): > 100 µM (inactive)
- GI50 (OVCAR-3): 26.5 µM (inactive)
